These substances were tested on 1.3 kbp, 2.8 kbp, and 3.6 kbp of human β-globin (assay: Amplification of long-chain DNA in PCR using dUTP). Conditions: dTTP replaced by dUTP, 35 cycles.
Assay type: biochemical
Set-up: key to Results of PCR in the presence of dUTP 1.3 kbp / Results of PCR in the presence of dUTP 2.8 kbp / Results of PCR in the presence of dUTP 3.6 kbp: A: Amplified; B: Amplified (faint band); C: Not amplified
Procedure, shortened: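 Enzymes (1 U, premixed with KOD antibody) amplified 1.3, 2.8 and 3.6 kbp β-globin from 10 ng human genomic DNA with 2 mM dNTPs having dUTP in place of dTTP, 1.5 mM MgSO4, 35 cycles (98° C. 10 s, 65° C. 30 s, 68° C. ~1 min/kbp). Taq control: 2.5 U, 94° C. denaturation. Yield judged by ethidium-stained agarose gel.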

Substance | Results of PCR in the presence of dUTP 1.3 kbp | Results of PCR in the presence of dUTP 2.8 kbp | Results of PCR in the presence of dUTP 3.6 kbp
KOD H147E/P36H/V93K: KOD H147E (exo(+)) mutant with P36H and V93K | A | A | C
KOD I142R/Y7A: KOD I142R (exo(−)) mutant with Y7A | C | C | C
KOD H147E/V93R: KOD H147E (exo(+)) mutant with V93R | B | B | B
KOD N210D/Y7A/P36R: KOD N210D (exo(−)) mutant with Y7A and P36R | A | A | A
KOD H147E/V93K: KOD H147E (exo(+)) mutant with V93K | B | B | B
KOD P36R/V93K: modified KOD DNA polymerase with P36R and V93K | C | C | C
KOD D141A/E143A/Y7A: KOD D141A/E143A (exo(−)) mutant with Y7A | C | C | C
KOD H147E/P36R: KOD H147E (exo(+)) mutant with P36R | B | B | B
KOD D141A/E143A/P36R: KOD D141A/E143A (exo(−)) mutant with P36R | A | A | A
KOD H147E/Y7A: KOD H147E (exo(+)) mutant with Y7A | C | C | C
KOD D141A/E143A/Y7A/V93K: KOD D141A/E143A (exo(−)) mutant with Y7A and V93K | A | A | A
KOD N210D/P36H: KOD N210D (exo(−)) mutant with P36H | A | A | A
KOD H147E/Y7A/P36H: KOD H147E (exo(+)) mutant with Y7A and P36H | A | A | B
KOD N210D/V93Q: KOD N210D (exo(−)) mutant with V93Q | C | C | C
KOD D141A/E143A/P36H: KOD D141A/E143A (exo(−)) mutant with P36H | A | A | A
KOD H147E/P36H: KOD H147E (exo(+)) mutant with P36H | B | B | C
KOD H147E/Y7A/P115Δ: KOD H147E (exo(+)) mutant with Y7A and lacking P115 | C | C | C
KOD H147E/Y7A/V93K: KOD H147E (exo(+)) mutant with Y7A and V93K | A | A | B
KOD N210D/Y7A: KOD N210D (exo(−)) mutant with Y7A | C | C | C

Substance | Results of PCR in the presence of dUTP 1.3 kbp | Results of PCR in the presence of dUTP 2.8 kbp | Results of PCR in the presence of dUTP 3.6 kbp
KOD Y7A/P115Δ: modified KOD DNA polymerase with Y7A and lacking P115 | C | C | C
KOD D141A/E143A/Y7A/P36H: KOD D141A/E143A (exo(−)) mutant with Y7A and P36H | A | A | A
KOD H147E/V93Q: KOD H147E (exo(+)) mutant with V93Q | C | C | C
KOD N210D/P36R: KOD N210D (exo(−)) mutant with P36R | A | A | A
KOD N210D/Y7A/P115Δ: KOD N210D (exo(−)) mutant with Y7A and lacking P115 | C | C | C
KOD N210D/Y7A/V93K: KOD N210D (exo(−)) mutant with Y7A and V93K | A | A | A
KOD N210D/V93K: KOD N210D (exo(−)) mutant with V93K | A | B | B
KOD H147E/P115Δ: KOD H147E (exo(+)) mutant lacking P115 | C | C | C
KOD N210D/P115Δ: KOD N210D (exo(−)) mutant lacking P115 | C | C | C
KOD I142R/Y7A/P36H: KOD I142R (exo(−)) mutant with Y7A and P36H | A | A | C
KOD H147E/Y7A/P36R: KOD H147E (exo(+)) mutant with Y7A and P36R | A | A | B
KOD I142R/Y7A/V93K: KOD I142R (exo(−)) mutant with Y7A and V93K | A | A | A
KOD P115Δ: modified KOD DNA polymerase lacking P115 | C | C | C
KOD I142R/P36H: KOD I142R (exo(−)) mutant with P36H | A | A | A
KOD D141A/E143A/Y7A/P36R: KOD D141A/E143A (exo(−)) mutant with Y7A and P36R | A | A | A
KOD I142R/P36R: KOD I142R (exo(−)) mutant with P36R | A | A | A
KOD H147E/P36R/V93K: KOD H147E (exo(+)) mutant with P36R and V93K | C | C | C
KOD Y7A/P36R: modified KOD DNA polymerase with Y7A and P36R | A | A | B
KOD N210D/V93R: KOD N210D (exo(−)) mutant with V93R | A | B | B

— patent US20150218534A1, “MODIFIED DNA POLYMERASE” (TOYOBO CO., LTD., priority 2012, published 2015)
